Measured values from paper PMC11342128, “Gold(I) and gold(III) carbene complexes from the marine betaine norzooanemonin: inhibition of thioredoxin reductase, antiproliferative and antimicrobial activity” (RSC Medicinal Chemistry, 2024).

What was measured:
Format in all cases: cell-based
A549 cells = assay: Gold cellular uptake, HRCS-AAS; details: 2 μM, Fig. 5
Description: The amount of potential drug accumulated in the cell is often described as one of the critical factors for further biological effect. The significant difference in antiproliferative effect observed for dicarbene complexes 5a–c may be directly related to the amount of gold ions taken up by the treated cells. The cellular accumulation of these complexes was evaluated in the most sensitive cancer cell line A549. […] The gold content was further quantified using high-resolution continuum source atomic absorption spectroscopy (HRCS-AAS).
S2.4. Cellular uptake and metal quantification studies in A549 cells
Cellular uptake studies in A549 cells
For cellular accumulation studies, A549 lung carcinoma cells were seeded in 75 cm2 cell culture flasks, incubated with 10 ml DMEM/10% FCS cell culture medium at 37 °C in a 5% CO2 humidified atmosphere until they reached a confluence of 75-80%. The cells were treated with DMEM containing selected test compounds 3a and 3c dissolved in DMF (final DMF concentration: 0.1%; final test compound concentration: 2 μM). After 6 and 24 h of exposure, cells were isolated by removing the media followed by trypsinization. The trypsinized cells were washed with 9 ml PBS buffer (pH 7.4), scraped, and isolated by centrifugation (5 min, 3500 rpm). The obtained cell pellets were stored at -20 °C for further use. All experiments were carried out in triplicate.
Metal quantification in cell lysates by HRCS-AAS
Dry cell pellets were diluted with 400 μl of Milli-Q® water and lysed for 30 min in an ultrasonic bath (240 W, […]). For protein quantification. 20 μl of each sample was added to 200 μl of Bradford reagent (25 mg Serva Blue G (Sigma Aldrich) in 25 ml Ethanol 96%, 25 ml Milli-Q® water and 50 ml H3PO4 86%, stored at -20 °C and freshly diluted 1+4 with Milli-Q® water prior to use) and incubated on a 96-well plate while shaking at room temperature for 30 min and measured by a Perkin Elmer Victor X4 plate reader at a wavelength of 595 nm. The measurements were performed in duplicate, and the mean was used to calculate the protein content. For a standard calibration curve, bovine serum albumin (Sigma Aldrich) was used in graded concentrations.
The gold quantification was performed using a high-resolution continuum source atomic absorption spectrometer ContrAA® 700 (Analytik Jena AG). A pure sample of the respective complex 5c was used as standard, and calibration was done in a matrix-matched manner (meaning all samples and standards were adjusted to a protein concentration of 1 mg/ml by dilution with Milli-Q® water). The calibration and samples were measured in duplicate. The final cellular gold concentrations were calculated from data obtained in three independent experiments and are expressed as pmol of metal per mg of cell protein. Sample preparation: Triton-X 100 (1%, 20 μl) and ascorbic acid (1%, 20 μl) were added to each calibration standard or probe (200 μl). A volume of 20 μl was injected into a coated standard graphite tube (Analytik Jena AG) and thermally processed as previously described.[10] The gold amount was analyzed at a wavelength of 242.79 nm.

[1] = system: Klebsiella pneumoniae DSM111678; assay: Antibacterial activity (MIC, curve fitting); details: Table S12; ± standard error of the mean
[2] = system: Escherichia coli DSM 1116; assay: Antibacterial activity (MIC, curve fitting); details: Table S12; ± standard error of the mean

| SMILES | Gold uptake (cellular gold content) (A549 cells; 6 h, 37 °C) | Gold uptake (cellular gold content) (A549 cells; 24 h compared with 6 h) | MIC, K. pneumoniae [1] [µM] | MIC, E. coli [2] [µM] |
| --- | --- | --- | --- | --- |
| COC(=O)c1cn(C)[c]([Au-]([Cl])([Cl])[c]2n(C)cc(C(=O)OC)[n+]2C)[n+]1C.O=S(=O)([O-])C(F)(F)F [5b] | higher degree of gold uptake | decreased significantly | > 100 | > 100 |
| CCOC(=O)c1cn(C)[c]([Au-]([Cl])([Cl])[c]2n(C)cc(C(=O)OCC)[n+]2C)[n+]1C.F[B-](F)(F)F [5c] | higher degree of gold uptake | decreased significantly | > 100 | > 100 |
| Cn1cc(C(=O)O)[n+](C)[c]1[Au-]([Cl])([Cl])[c]1n(C)cc(C(=O)O)[n+]1C.[Cl-] [5a] | low gold uptake |  | > 100 | > 100 |
